Source: patent publication US20160120949A1, “USES OF IL-12 IN HEMATOPOIETIC IMMUNOTHERAPY (HIT)” (Neumedicines, Inc., priority 2014, published 2016)
Counter-ions that a name gives are not always drawn.

Experiments:
[1] = cited from earlier work
[2] = controlled room temperature 20° C. to 25° C.; cited from earlier work
[3] = cited from earlier work; remark: listed apart in the source
[4] = infusion time beyond 60 minutes; cited from earlier work
[5] = tested on: Irradiated, Unsupported Rhesus Monkeys; assay: Radiomitigation study in myeloablated, lethally irradiated, unsupported nonhuman primates; type: in vivo
Description: FIG. 3: Kaplan-Meier Survival Curves of Irradiated, Unsupported Monkeys Treated with HemaMax™. Pooled HemaMax™ dosing group is shown. No antibiotics were used during the study. One animal with a broken tooth was excluded from the study because of an unrelated death to the study. p<0.05 pooled treatment groups.
FIGS. 4A-4B: Leukocyte (A) and Thrombocyte (B) Counts in Irradiated, Unsupported Rhesus Monkeys Treated With HemaMax™. Three analyses were conducted to assess differences in blood cell counts during the study period.
FIG. 4 describes […] Counts in Irradiated, Unsupported Rhesus Monkeys Treated With HemaMax™. Three analyses were conducted to assess differences in blood cell counts during the study period.

[6] = tested on: human immune cells; assay: Pharmacodynamic response (IFN-γ) in human immune cells in vitro; type: cell-based
[7] = tested on: non-human primates (rhesus monkeys); assay: Pharmacodynamic response (IFN-γ) in non-human primates in vitro and in vivo; details: both in vitro and in vivo
[8] = tested on: Lin-IL-12Rβ2-cells; assay: Megacult colony culture with and without IL-12; type: cell-based; details: megacult medium, 5000 cells/slide
Description: FIG. 7: Lin-IL-12Rβ2-cells were plated in megacult medium at 5000 cells/slide with and without IL-12.
By way of example, FIG. 7 describes Lin-IL-12RB2-cells were plated in megacult medium at 5000 cells/slide with and without IL-12.

[9] = tested on: neutrophils, red blood cells and platelets; assay: Blood recovery after myelosuppressive radiation (625 rad), EL4 lymphoma tumor model; type: in vivo, mice; details: days 14-21
Excerpt: (§1) FIGS. 1A-1B: Blood Recovery Profiles for Vehicle and rMuIL-12 Administered Before and After Myelosuppresive Radiation (625 rad). Blood cell recovery profiles are shown for the EL4 lymphoma tumor model (A) and the Lewis lung cancer model (B) for neutrophils, red blood cells and platelets. Pre-radiation blood values reflect an average of all animals in both groups before radiation and tumor inoculation. The normal threshold value for murine blood cell counts is indicated by the dashed line.
(§2) Platelet recovery profiles are shown for the EL4 lymphoma tumor model (a) and the Lewis lung cancer model (b).

[10] = tested on: neutrophils, red blood cells and platelets; assay: Blood recovery after myelosuppressive radiation (625 rad), Lewis lung cancer model; type: in vivo, mice; details: days 14-21
Excerpt: as §1, §2

[11] = tested on: EL4 lymphoma tumor model; assay: Tumor volume after radiation (625 rad), EL4 lymphoma tumor model; type: in vivo, mice; details: 625 rad day 1 and second dose day 22, pre, post and pre-post radiation dosing groups, endpoint of tumor volume evaluation
Excerpt: (§3) FIGS. 2A-2B: Relative Changes in Tumor Volumes for Vehicle and rMuIL-12 Treatment Groups Following Radiation (625 rad). Changes in tumor volumes over the course of the experiment are shown for the EL4 lymphoma tumor model (A) and the Lewis Lung cancer tumor model (B). Mice in both tumor models were given 625 rad on day 1. Mice in both tumor models were given a second dose of radiation on day 22 following the initial radiation dose.
as §3, with “FIG. 2 A-B describe” for “FIGS. 2A-2B:”, “(a)” for “(A)”, “(b).” for “(B).”

[12] = tested on: Lewis Lung cancer tumor model; assay: Tumor volume after radiation (625 rad), Lewis Lung cancer tumor model; type: in vivo, mice; details: 625 rad day 1 and second dose day 22, rMuIL-12 post-treatment, endpoint of tumor growth evaluation
Excerpt: as §3
as §3, with “FIG. 2 A-B describe” for “FIGS. 2A-2B:”, “(a)” for “(A)”, “(b).” for “(B).”

[13] = tested on: femoral bone marrow; assay: Hematopoietic recovery in irradiated mice (TBI 8.0 Gy), femoral bone marrow IHC for IL-12Rβ2; type: in vivo; details: 20 ng/mouse subcutaneously post irradiation, 12 days after irradiation
Description: FIGS. 6A-6F: Murine IL-12 Promotes Hematopoietic Recovery in Irradiated Mice. Representative sections of femoral bone marrow from non-irradiated, untreated mice that were stained for IL-12Rβ2 are shown in (A). Animals were subjected to TBI (8.0 Gy) and subsequently received vehicle or rMuIL-12 (20 ng/mouse) subcutaneously at the indicated times post irradiation (B-F). Femoral bone marrow was immunohistochemically stained for IL-12Rβ2 (orange color) 12 days after irradiation. […] Magnification=100×.
By way of example, FIG. 6 describes Murine IL-12 Promotes Hematopoietic Recovery in Irradiated Mice. Representative sections of femoral bone marrow from non-irradiated, untreated mice that were stained for IL-12Rβ2 (orange color) are shown in (a). Animals were subjected to TBI (8.0 Gy) and subsequently received vehicle or rMuIL-12 (20 ng/mouse) subcutaneously at the indicated times post irradiation (b-f). Femoral bone marrow was immunohistochemically stained for IL-12Rβ2 (orange color) 12 days after irradiation.

[14] = tested on: platelets; assay: Chemotherapy induced thrombocytopenia (CIT) model, gemcitabine/carboplatin (GC) chemotherapy, platelet counts; type: in vivo, mice; details: for % platelet counts from baseline (average and standard deviation): day 8
Description: The effect of rMuIL-12 administration in conjunction with gemcitabine/carboplatin chemotherapy (GC) (6.6 mg gemcitabine dose+2 mg carboplatin) was examined. Mice received GC intravenously on day 0.
Pre-dosing: rMuIL-12 was given 24 hours before chemotherapy treatment (n=18)
Post-dosing: rMuIL-12 was administered 48 hours after chemotherapy treatment (n=19) Pre/post dosing: rMuIL-12 was given 24 hours before chemotherapy and 48 hours after chemotherapy (n=13)
Averages of % platelet counts from baseline and standard deviations for each group at day 8 were: […]

[15] = tested on: Lewis Lung tumor cells; assay: Lewis Lung mouse tumor model with concomitant GC chemotherapy, tumor volume; type: in vivo; details: 20 ng subcutaneously before, after or before/after GC; differences not statistically significant
Description: The effect of rMuIL-12 administration on tumor growth in a mouse tumor chemotherapy model was evaluated. The tumor model used Lewis Lung tumor cells that were subcutaneously injected (100,000 cells) in each mouse. At a given time after tumor inoculation, mice were treated with chemotherapy. The gemcitabine/carboplatin chemotherapy regimen as described above was used and administered IP. rMuIL-12 was administered subcutaneously (20 ng) before, after, or before/after chemotherapy as indicated below.
Pre-dosing (n=16): rMuIL-12 was given 24 hours before chemotherapy treatment,
Post-dosing (n=16): rMuIL-12 was administered 48 hours after chemotherapy treatment
Pre/post dosing (n=16): rMuIL-12 was given 24 hours before chemotherapy and 48 hours after chemotherapy. Control (n=16)
Tumor volume was monitored over time to compared tumor growth in the control compared to rMuIL-12 treated mice. […] The differences among groups in tumor growth were not statistically significant.

[16] = tested on: Lewis Lung tumor; assay: Lewis Lung tumor model with two rounds of gemcitabine monotherapy, tumor volume; type: in vivo, mouse; details: gemcitabine 6.6 mg IP twice, one week apart; differences not statistically significant
Description: The study evaluate the effect of rMuIL-12 on tumor growth in a mouse chemotherapy model was followed up with a second study to examine the growth in the same Lewis Lung model when gemcitabine was used as monotherapy and administered two times, one week apart. rMuIL-12 was also administered as pre-dosing and post-dosing, as described above, and also with a 24 hour post group and on the same day as chemotherapy administration. rMuIL-12 was administered at either both weeks of chemotherapy or only the first week. There were five groups with n=5 for each group. These groups are described below: Chemotherapy once weekly: Gemcitabine only, administered IP, 6.6 mg rMuIL-12 given weekly, three schedules: 24 hours pre-chemotherapy (Pre); Same day as chemotherapy (SD); 24 hours post chemotherapy (Post1=24 hrs-post; Post2=48 hrs-post).
By way of example, FIG. 10 describes Lewis Lung Tumor Volume of Mice Under Monotherapy With Gemcitabine Receiving rMuIL-12. Day 0 is the time of the first chemotherapy. The second chemotherapy administration took place at day 7. […] The differences in growth among groups were not statistically significant.

[17] = days 12 and 14, 100 ng/kg and 250 ng/kg doses
[18] = rMuIL-12 before and after 625 rad

For `Nc1ccn([C@@H]2O[C@H](CO)[C@@H](O)C2(F)F)c(=O)n1` [Gemzar, 2′-deoy-2′,2′-difluorocytidine monohydrochloride (β-isomer)], the “maximum concentration upon reconstitution (solubility considerations)” value ([1]; 0.9% Sodium Chloride Injection) is given as 40 mg/mL, the “solubility in ethanol and polar organic solvents” value ([1]; ethanol and polar organic solvents) is given as “practically insoluble in ethanol and polar organic” and the solubility in methanol ([1]; methanol) is given as “slightly soluble”. For the same molecule, the solubility in water ([1]; water) was “soluble”, the “stability of prepared solutions” value [2] was 24 h and the acute dermal irritation ([3]; animal studies) was “not been observed”. For the same molecule, the “rabbits with drug-related systemic toxicities (death, hypoactivity, nasal discharge, shallow breathing) due to dermal absorption” value ([3]; rabbits, dermal) was “two of three” and the “toxicity on prolongation of infusion time beyond 60 minutes” value [4] was “minutes has been shown to increase toxicity”.

In the case of “HemaMax: recombinant human IL-12, heterodimeric glycoprotein of p35 and p40 subunits, 503 amino acids, produced in CHO cells”, the “numbers of leukocytes as compared to vehicle” value [5, 17] is reported as “significantly higher numbers”, the “numbers of thrombocytes as compared to vehicle” value [5, 17] is reported as “significantly higher numbers” and the “monkeys that required a platelet transfusion” value ([5]; lethal radiation NHP study, vehicle 80%) is reported as 25%. The “platelet and WBC nadirs” value ([5]; lethally irradiated NHP) was “attenuates”, the survival ([5]; lethally irradiated NHP, no antibiotics, pooled dosing groups) was “increases survival” and the “pharmacodynamic response (interferon-γ [IFN-γ])” value [6] was “potently elicits”. The “pharmacodynamic response (interferon-γ [IFN-γ])” value [7] was “potently elicits”.

B1: IL-12: heterodimeric cytokine comprising p40 and p35 subunits; species of the IL-12 used in the megacult culture not stated (protein, UniProt P29459 23-219; P29460 23-328, looked up)
Interleukin-12 subunit alpha: RNLPVATPDPGMFPCLHHSQNLLRAVSNMLQKARQTLEFYPCTSEEIDHEDITKDKTSTVEACLPLELTKNESCLNSRETSFITNGSCLASRKTSFMMALCLSSIYEDLKMYQVEFKTMNAKLLMDPKRQIFLDQNMLAVIDELMQALNFNSETVPQKSSLEEPDFYKTKIKLCILLHAFRIRAVTIDRVMSYLNAS
Interleukin-12 subunit beta: IWELKKDVYVVELDWYPDAPGEMVVLTCDTPEEDGITWTLDQSSEVLGSGKTLTIQVKEFGDAGQYTCHKGGEVLSHSLLLLHKKEDGIWSTDILKDQKEPKNKTFLRCEAKNYSGRFTCWWLTTISTDLTFSVKSSRGSSDPQGVTCGAATLSAERVRGDNKEYEYSVECQEDSACPAAEESLPIEVMVDAVHKLKYENYTSSFFIRDIIKPDPPKNLQLKPLKNSRQVEVSWEYPDTWSTPHSYFSLTFCVQVQGKSKREKKDRVFTDKTSATVICRKNASISVRAQDRYYSSSWSEWASVPCS
In the case of B1, the “colony size in comparison to media alone” value [8] is reported as “larger colonies”.

B2: rMuIL-12: murine recombinant IL-12, the murine counterpart to HemaMax (protein, UniProt P43431 23-215; P43432 23-335, looked up)
Interleukin-12 subunit alpha: RVIPVSGPARCLSQSRNLLKTTDDMVKTAREKLKHYSCTAEDIDHEDITRDQTSTLKTCLPLELHKNESCLATRETSSTTRGSCLPPQKTSLMMTLCLGSIYEDLKMYQTEFQAINAALQNHNHQQIILDKGMLVAIDELMQSLNHNGETLRQKPPVGEADPYRVKMKLCILLHAFSTRVVTINRVMGYLSSA
Interleukin-12 subunit beta: MWELEKDVYVVEVDWTPDAPGETVNLTCDTPEEDDITWTSDQRHGVIGSGKTLTITVKEFLDAGQYTCHKGGETLSHSHLLLHKKENGIWSTEILKNFKNKTFLKCEAPNYSGRFTCSWLVQRNMDLKFNIKSSSSSPDSRAVTCGMASLSAEKVTLDQRDYEKYSVSCQEDVTCPTAEETLPIELALEARQQNKYENYSTSFFIRDIIKPDPPKNLQMKPLKNSQVEVSWEYPDSWSTPHSYFSLKFFVRIQRKKEKMKETEEGCNQKGAFLVEKTSTEVQCKGGNVCVQAQDRYYNSSCSKWACVPCRVRS
For B2, the “platelet counts as compared to the vehicle control” value ([9]; 625 rad) was “statistically significant improvements”, the “blood cell counts as compared to the vehicle control” value [9, 18] was “statistically significant improvements” and the “platelet counts as compared to the vehicle control” value ([10]; 625 rad) was “statistically significant improvements”. For the same molecule, the “blood cell counts as compared to the vehicle control” value [10, 18] was “statistically significant improvements”, the “tumor growth % T/C” value [11] was under 50% and the “tumor growth % T/C” value [12] was under 50%. For the same molecule, the “hematopoietic recovery in femoral bone marrow” value [13] was “hematopoietic reconstitution”, the “animals with a decrease in platelets of more than 33%” value ([14]; all rMuIL-12 treated groups) was 0 out of 50 and the “% platelet counts from baseline (average and standard deviation)” value ([14]; Post-dosing: 48 hours after chemotherapy) was 110±37%. The “% platelet counts from baseline (average and standard deviation)” value ([14]; Pre-dosing: 24 hours before chemotherapy) was 79±34%, the “% platelet counts from baseline (average and standard deviation)” value ([14]; Pre/Post dosing: 24 hours before and 48 hours after chemotherapy) was 111±33% and the “mice with platelet levels that dropped one-third of baseline level or more” value ([14]; rMuIL-12 prior to, after or both prior to and after chemotherapy, 8 days after chemotherapy) was 0%. The “tumor growth (tumor volume)” value [15] was “did not increase tumor growth” and the “tumor growth rate (tumor volume)” value [16] was “did not increase the tumor growth rate”.
